From US20070213359A1 (ACADIA Pharmaceuticals Inc., priority 2005, published 2007) come the findings set out here.

Sequence of Ghrelin receptor (Q92847 whole entry): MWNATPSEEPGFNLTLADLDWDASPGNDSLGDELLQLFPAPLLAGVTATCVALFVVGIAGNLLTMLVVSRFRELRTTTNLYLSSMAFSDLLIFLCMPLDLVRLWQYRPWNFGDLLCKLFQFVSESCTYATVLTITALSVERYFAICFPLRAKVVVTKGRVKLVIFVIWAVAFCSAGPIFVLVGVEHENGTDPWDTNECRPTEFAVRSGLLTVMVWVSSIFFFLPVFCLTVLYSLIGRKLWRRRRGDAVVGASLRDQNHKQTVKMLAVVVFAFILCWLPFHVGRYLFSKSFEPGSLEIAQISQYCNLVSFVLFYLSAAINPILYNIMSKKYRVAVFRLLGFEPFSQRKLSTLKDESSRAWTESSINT
T1 sequence (Q92847 whole entry): as above

One test concerns the target Ghrelin receptor (Homo sapiens, UniProt Q92847). Put plainly: Receptor Selection and Amplification Technology (R-SAT) assay. It counts as cell-based. Particulars: negative logarithm of ligand concentration causing 50% inhibition of constitutive receptor response; transfected NIH3T3 cells; '—' not defined (nd used separately); read-out: RSAT pIC50 (converted). The arrangement: expressed in transfected cells; host or cells: NIH3T3.
`CC(=O)c1cn(CCCN2CCCN(Cc3ccccc3Cl)CC2)c2c(Br)cccc12`: the IC50 was 5.01 nM.

For `COc1cccc2c(C(=O)NCc3cccc(C)c3)cn(CCCN3C4CCC3CC(Oc3ccccc3Cl)C4)c12` (stereo not drawn), the IC50 was 5.01 nM.

Regarding `CC(=O)c1cn(CCCN2CCCN(Cc3ccccc3Cl)CC2)c2c(C#N)cccc12`, the IC50 is 6.31 nM.

In the case of `COc1cccc2c(C(=O)NCC(C)C)cn(CCCN3C4CCC3CC(Oc3ccc(Cl)cc3)C4)c12` (stereo not drawn), the IC50 is 6.31 nM.

Consider `COc1cccc2c(C(C)=O)cn(CCCN3CCN(c4ncccc4C(F)(F)F)CC3)c12`, for which the IC50 was 6.31 nM.

In the case of `COc1cccc2c(C(C)=O)cn(CCCN3CCN(c4c(C)cccc4C)CC3)c12`, the IC50 is 6.31 nM.

Turning to `CC(=O)c1cn(CCCN2CCC(Oc3cccc(Cl)c3)CC2)c2c(C#N)cccc12`, the IC50 was 7.94 nM.

For the compound `CCCCC[C@H]1C[C@H]2CC[C@@H](C1)N2CCCn1cc(C(=O)NCC(C)C)c2cccc(OC)c21`, the IC50 is 7.94 nM.

Regarding `COc1cccc2c(C(C)=O)cn(CCCN3CCN(c4cccc(Cl)c4)CC3)c12`, the IC50 was 7.94 nM.

As to `CC(=O)c1cn(CCCN2C3CCC2CC(CCc2ccccc2)C3)c2c(C#N)cccc12` (stereo not drawn), the IC50 is 7.94 nM.

For the compound `CC(=O)c1cn(CCCN2C3CCC2CC(CCc2ccccc2)C3)c2c(Br)cccc12` (stereo not drawn), the IC50 is 7.94 nM.

As to `COc1cccc2c(C(=O)NCc3cccc(Cl)c3)cn(CCCN3CCC(Oc4cccc(Cl)c4)CC3)c12`, the IC50 is 7.94 nM.

With `COc1cccc2c(C(=O)NCC(C)C)cn(CCCN3CCC(Oc4ccccc4Cl)CC3)c12`, the IC50 is 7.94 nM.

With `CC(=O)c1cn(CCCN2CCCN(Cc3ccccc3Cl)CC2)c2c(Cl)cccc12`, the IC50 was 7.94 nM.

Turning to `COc1cccc2c(C(C)=O)cn(CCCN3CCN(c4cccc(Cl)c4Cl)CC3)c12`, the IC50 is 7.94 nM.

Take `CCCCC1CCN(CCCn2cc(C(C)=O)c3cccc(C)c32)CC1`: the IC50 was 7.94 nM.

`COc1cccc2c(C(=O)NCC(C)C)cn(CCCN3C4CCC3CC(Oc3ccccc3Cl)C4)c12` (stereo not drawn): the IC50 is 10 nM.

Turning to `CC(=O)c1cn(CCCN2CCC(c3nc4ccccc4s3)CC2)c2c(Br)cccc12`, the IC50 is 10 nM.

On to `COc1cccc2c(C(C)=O)cn(CC(C)CN3CCCN(Cc4ccccc4Cl)CC3)c12` (stereo not drawn), for which the IC50 was 10 nM.

Staying with this test, now noted: percent inhibition at saturating ligand, normalized to reference ligand Substance P analog = 100%.
As for `COc1cccc2c(C(=O)NCc3cccc(C)c3)cn(CCCN3C4CCC3CC(Oc3ccccc3Cl)C4)c12` (stereo not drawn), the “RSAT Eff(%)” value turned out to be 121%.

As to `COc1cccc2c(C(=O)NCC(C)C)cn(CCCN3C4CCC3CC(Oc3ccc(Cl)cc3)C4)c12` (stereo not drawn), the “RSAT Eff(%)” value is reported as 107%.

Turning to `COc1cccc2c(C(=O)NCC(C)C)cn(CCCN3C4CCC3CC(Oc3ccccc3Cl)C4)c12` (stereo not drawn), the “RSAT Eff(%)” value is 116%.

Staying with this test, now noted: percent inhibition at saturating ligand, normalized to reference ligand Substance P analog = 100%; read-out: RSAT Eff(%).
Consider `CC(=O)c1cn(CCCN2CCCN(Cc3ccccc3Cl)CC2)c2c(Br)cccc12`, for which the Emax was determined as 95%.

Consider `CC(=O)c1cn(CCCN2CCCN(Cc3ccccc3Cl)CC2)c2c(C#N)cccc12`, for which the Emax came to 98%.

Regarding `COc1cccc2c(C(C)=O)cn(CCCN3CCN(c4ncccc4C(F)(F)F)CC3)c12`, the Emax worked out at 108%.

Take `COc1cccc2c(C(C)=O)cn(CCCN3CCN(c4c(C)cccc4C)CC3)c12`: the Emax turned out to be 107%.

Regarding `CC(=O)c1cn(CCCN2CCC(Oc3cccc(Cl)c3)CC2)c2c(C#N)cccc12`, the Emax amounted to 101%.

Consider `COc1cccc2c(C(C)=O)cn(CCCN3CCN(c4cccc(Cl)c4)CC3)c12`, for which the Emax was 99%.

Regarding `CC(=O)c1cn(CCCN2C3CCC2CC(CCc2ccccc2)C3)c2c(Br)cccc12` (stereo not drawn), the Emax is 107%.

With `CC(=O)c1cn(CCCN2CCCN(Cc3ccccc3Cl)CC2)c2c(Cl)cccc12`, the Emax came to 92%.

On to `COc1cccc2c(C(C)=O)cn(CCCN3CCN(c4cccc(Cl)c4Cl)CC3)c12`, for which the Emax came out at 103%.

In the case of `CCCCC1CCN(CCCn2cc(C(C)=O)c3cccc(C)c32)CC1`, the Emax was found to be 78%.

For `CC(=O)c1cn(CCCN2CCC(c3nc4ccccc4s3)CC2)c2c(Br)cccc12`, the Emax turned out to be 81%.

`COc1cccc2c(C(C)=O)cn(CC(C)CN3CCCN(Cc4ccccc4Cl)CC3)c12` (stereo not drawn): the Emax was determined as 123%.

The same test, now with this note: read-out: RSAT Eff(%).
For `CCCCC[C@H]1C[C@H]2CC[C@@H](C1)N2CCCn1cc(C(=O)NCC(C)C)c2cccc(OC)c21`, the Emax worked out at 135%.

In the case of `CC(=O)c1cn(CCCN2C3CCC2CC(CCc2ccccc2)C3)c2c(C#N)cccc12` (stereo not drawn), the Emax came out at 106%.

`COc1cccc2c(C(=O)NCc3cccc(Cl)c3)cn(CCCN3CCC(Oc4cccc(Cl)c4)CC3)c12`: the Emax was determined as 100%.

As to `COc1cccc2c(C(=O)NCC(C)C)cn(CCCN3CCC(Oc4ccccc4Cl)CC3)c12`, the Emax was found to be 100%.

A further test has as its target T1, GHSR1a receptor (Homo sapiens, UniProt Q92847).
T1 construct: expressed in transfected cells; host or cells: HEK293 (membranes)
The experiment in a line: 125I-Ghrelin binding assay. As to conditions: displacement of 125I-ghrelin (0.053 nM), membranes of HEK293 cells transfected with GHSR1a; Cheng-Prussoff; '—' not defined; read-out: Binding pKi (converted). On the procedure:
Plasmid DNA containing the GHSR1a receptor (12.5 ug/dish) in 0.675 ml DMEM was transfected into the cells by mixing with 180 ul PolyFect, 15 min later mixing in 2.25 ml 10% CS/DMEM, and transferring the mixture into the dish. At 16-18 h post transfection, medium was replaced with 25 ml fresh 10% FCS/1% PSG/DMEM to each dish for another 18-20 h. At approximately 48 hours post-transfection, cells were harvested in ice-cold membrane buffer (20 mM HEPES, 6 mM MgCl2, 1 mM EDTA, pH to 7.2) using a cell scraper, and pelleted by centrifugation.
Pelleted cells were added to a nitrogen cavitation chamber and 900 bar of pressure applied for 30 min. The pressure was slowly released the cavitated cells collected in 50 ml falcon tubes. The tubes were centrifuged at 1000 rpm, 4° C. for 10 min, and the supernatant collected. This centrifugation and collection was repeated two more times until the supernatant was free of precipitate (membranes are still in suspension). The supernatant was poured into a 50 ml centrifuge tube and centrifuged at 10.000 rpm, 4° C. for 20 min. The supernatant was discarded and the pellet re-suspended in 750 μl membrane binding buffer using a chilled 1 ml syringe with 25G5/8 needle to re-suspend membranes. The protein concentration was determined using the BioRad Protein Assay Dye Reagent according to the manufacturers instructions. The protein concentration was adjusted to 5 mg/ml and aliquots snap-frozed and stored at −80 C until use.
Membranes were thawed rapidly; diluted with binding buffer (25 mM Hepes+5 mM MgCl2, 1 mM CaCl2, 2.5 mM EDTA and 0.2% BSA) to a protein concentration of 0.8 ug/30 ul and placed on ice. 96-well plates (U-bottom wells) were prepared with serial dilutions (8 doses, 40 ul/w) of the test compounds. Membranes (30 uL/well) were then added, and incubated with test ligands for 30 min at room temperature with shaking. […] Binding was terminated by filtration through GF/B filters (presoaked with 0.1% polyethylenimine) with a Brandel 96-well harvester. The filters were washed with ice-cold binding buffer (150 ml/plate) and allowed to air-dry for 30 min. 50 ul MicroScient-20 cocktail was added to each dried well, the plates were sealed, and counted for 2 min/well using a TopCount scintillation counter (Packard).
Consider `CC(=O)c1cn(CCCN2CCCN(Cc3ccccc3Cl)CC2)c2c(Br)cccc12`, for which the Ki was 10 nM.

Turning to `COc1cccc2c(C(=O)NCc3cccc(C)c3)cn(CCCN3C4CCC3CC(Oc3ccccc3Cl)C4)c12` (stereo not drawn), the Ki is 20 nM.

Consider `CC(=O)c1cn(CCCN2CCCN(Cc3ccccc3Cl)CC2)c2c(C#N)cccc12`, for which the Ki is 63.1 nM.

`COc1cccc2c(C(=O)NCC(C)C)cn(CCCN3C4CCC3CC(Oc3ccc(Cl)cc3)C4)c12` (stereo not drawn): the Ki was 100 nM.

For `COc1cccc2c(C(C)=O)cn(CCCN3CCN(c4ncccc4C(F)(F)F)CC3)c12`, the Ki was 1000 nM.

As for `COc1cccc2c(C(C)=O)cn(CCCN3CCN(c4c(C)cccc4C)CC3)c12`, the Ki was 1000 nM.

On to `CC(=O)c1cn(CCCN2CCC(Oc3cccc(Cl)c3)CC2)c2c(C#N)cccc12`, for which the Ki was 158 nM.

Consider `CCCCC[C@H]1C[C@H]2CC[C@@H](C1)N2CCCn1cc(C(=O)NCC(C)C)c2cccc(OC)c21`, for which the Ki was 79.4 nM.

Regarding `COc1cccc2c(C(C)=O)cn(CCCN3CCN(c4cccc(Cl)c4)CC3)c12`, the Ki is 501 nM.

Turning to `CC(=O)c1cn(CCCN2C3CCC2CC(CCc2ccccc2)C3)c2c(C#N)cccc12` (stereo not drawn), the Ki was 39.8 nM.

Turning to `CC(=O)c1cn(CCCN2C3CCC2CC(CCc2ccccc2)C3)c2c(Br)cccc12` (stereo not drawn), the Ki is 79.4 nM.

As for `COc1cccc2c(C(=O)NCc3cccc(Cl)c3)cn(CCCN3CCC(Oc4cccc(Cl)c4)CC3)c12`, the Ki is 63.1 nM.

`COc1cccc2c(C(=O)NCC(C)C)cn(CCCN3CCC(Oc4ccccc4Cl)CC3)c12`: the Ki was 63.1 nM.

As to `CC(=O)c1cn(CCCN2CCCN(Cc3ccccc3Cl)CC2)c2c(Cl)cccc12`, the Ki was 79.4 nM.

Consider `COc1cccc2c(C(C)=O)cn(CCCN3CCN(c4cccc(Cl)c4Cl)CC3)c12`, for which the Ki was 398 nM.

On to `CCCCC1CCN(CCCn2cc(C(C)=O)c3cccc(C)c32)CC1`, for which the Ki is 316 nM.

Consider `COc1cccc2c(C(=O)NCC(C)C)cn(CCCN3C4CCC3CC(Oc3ccccc3Cl)C4)c12` (stereo not drawn), for which the Ki was 100 nM.

In the case of `CC(=O)c1cn(CCCN2CCC(c3nc4ccccc4s3)CC2)c2c(Br)cccc12`, the Ki is 200 nM.

Turning to `COc1cccc2c(C(C)=O)cn(CC(C)CN3CCCN(Cc4ccccc4Cl)CC3)c12` (stereo not drawn), the Ki was 100 nM.
